Source: patent publication US8604021B2, “Substituted arylamine compounds and methods of treatment” (priority 2005, dated 2013)
Structures can show the parent of a compound that is named as a salt. Where two headings read alike, the source gives them in different places. Blank lines part the entries; values can stand above or below the compound they belong to.

What was measured:
5-HT6 receptor = 5-HT6 receptor (Homo sapiens, UniProt P50406); experiment: 5-HT6 receptor binding
[1] = Food intake, body weight and plasma biomarkers in DIO (diet-induced obese) rats; type: in vivo; settings: DIO rats, 3, 10 mg/kg bid, two weeks
D3 = D3 (Homo sapiens, UniProt P35462); experiment: Compound Binding Profiles: D3
5HT2A = 5HT2A (Homo sapiens, UniProt P28223); experiment: Compound Binding Profiles: 5HT2A
α2 = experiment: Compound Binding Profiles: α2
H1 = H1 (Homo sapiens, UniProt P35367); experiment: Compound Binding Profiles: H1; settings: * = Estimated IC50
5HT1A = molecular target: T1, 5HT1A (Homo sapiens, UniProt P08908); experiment: Compound Binding Profiles: 5HT1A; settings: read-out: 5HT1A binding class
T1 sequence (P08908 1-422): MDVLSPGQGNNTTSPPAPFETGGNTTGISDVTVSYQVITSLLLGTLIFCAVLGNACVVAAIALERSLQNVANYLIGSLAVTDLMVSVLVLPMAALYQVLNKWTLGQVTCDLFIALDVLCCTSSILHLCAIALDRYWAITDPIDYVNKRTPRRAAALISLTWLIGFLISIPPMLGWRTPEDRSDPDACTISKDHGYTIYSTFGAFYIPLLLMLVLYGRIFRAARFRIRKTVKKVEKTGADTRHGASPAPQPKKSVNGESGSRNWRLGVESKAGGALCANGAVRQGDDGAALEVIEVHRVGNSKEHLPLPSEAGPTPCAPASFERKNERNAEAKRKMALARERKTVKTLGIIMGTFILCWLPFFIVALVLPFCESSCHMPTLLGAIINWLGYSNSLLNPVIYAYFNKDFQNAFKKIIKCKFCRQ

5HT2C = molecular target: T2, 5HT2C (Homo sapiens, UniProt P28335); experiment: Compound Binding Profiles: 5HT2C
T2 sequence (P28335 33-458): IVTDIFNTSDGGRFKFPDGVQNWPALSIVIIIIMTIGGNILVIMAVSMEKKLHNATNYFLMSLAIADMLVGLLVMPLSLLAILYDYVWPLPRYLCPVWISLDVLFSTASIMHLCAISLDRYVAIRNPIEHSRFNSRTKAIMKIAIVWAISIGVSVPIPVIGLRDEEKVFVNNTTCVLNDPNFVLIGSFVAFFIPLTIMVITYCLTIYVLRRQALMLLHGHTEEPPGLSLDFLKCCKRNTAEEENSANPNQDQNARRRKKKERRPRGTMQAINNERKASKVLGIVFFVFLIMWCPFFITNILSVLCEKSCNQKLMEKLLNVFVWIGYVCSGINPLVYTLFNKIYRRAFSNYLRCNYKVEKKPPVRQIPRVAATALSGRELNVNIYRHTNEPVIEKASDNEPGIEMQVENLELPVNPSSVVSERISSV

D4 = molecular target: T3, D4 (Homo sapiens, UniProt P21917); experiment: Compound Binding Profiles: D4; settings: read-out: D4 binding class
T3 sequence (P21917 1-419): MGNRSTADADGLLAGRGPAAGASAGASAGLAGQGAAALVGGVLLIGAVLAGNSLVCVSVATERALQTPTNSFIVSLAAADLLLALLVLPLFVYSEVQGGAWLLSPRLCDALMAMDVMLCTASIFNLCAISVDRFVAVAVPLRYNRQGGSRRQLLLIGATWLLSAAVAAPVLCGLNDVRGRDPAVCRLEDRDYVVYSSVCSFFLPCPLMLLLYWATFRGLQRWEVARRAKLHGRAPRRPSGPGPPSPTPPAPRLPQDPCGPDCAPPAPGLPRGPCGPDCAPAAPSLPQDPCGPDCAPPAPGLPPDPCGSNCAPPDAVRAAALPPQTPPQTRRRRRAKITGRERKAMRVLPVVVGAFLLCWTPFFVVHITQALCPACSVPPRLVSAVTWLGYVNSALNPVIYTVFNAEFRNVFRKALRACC

D1 = D1 (Homo sapiens, UniProt P21728); experiment: Compound Binding Profiles: D1; settings: read-out: D1 binding class
D2 = D2 (Homo sapiens, UniProt P14416); experiment: Compound Binding Profiles: D2; settings: * = Estimated IC50
α1 = experiment: Compound Binding Profiles: α1
M1 = molecular target: T4, M1 (Homo sapiens, UniProt P11229); experiment: Compound Binding Profiles: M1
T4 sequence (P11229 1-460): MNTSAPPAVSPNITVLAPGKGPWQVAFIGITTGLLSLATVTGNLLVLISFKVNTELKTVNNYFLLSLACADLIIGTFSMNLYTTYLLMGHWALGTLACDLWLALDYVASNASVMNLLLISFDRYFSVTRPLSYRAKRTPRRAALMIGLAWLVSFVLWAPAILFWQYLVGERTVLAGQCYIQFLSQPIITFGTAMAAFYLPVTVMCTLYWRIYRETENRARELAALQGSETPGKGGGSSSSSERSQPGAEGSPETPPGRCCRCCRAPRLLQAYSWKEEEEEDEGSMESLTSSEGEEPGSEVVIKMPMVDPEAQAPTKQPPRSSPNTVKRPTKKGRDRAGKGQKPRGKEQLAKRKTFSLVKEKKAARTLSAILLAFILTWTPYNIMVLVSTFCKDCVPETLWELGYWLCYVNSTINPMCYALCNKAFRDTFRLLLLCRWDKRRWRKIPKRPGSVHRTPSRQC

[2] = Novel object recognition test; type: in vivo, C57Bl/6J mice; settings: for effect on recognition index / object recognition compared to vehicle: 0.1 mg/kg i.p
Description: Male C57Bl/6J mice from Jackson Laboratories (Bar Harbor, Me.) were used. Mice were received at 6-weeks of age. Upon receipt, mice were assigned unique identification numbers (tail marked) and were group housed in polycarbonate cages with filter tops. All animals remained housed in groups of four during the remainder of the study. All mice were acclimated to the colony room for at least two weeks prior to testing and were subsequently tested at an average age of 8 weeks of age. During the period of acclimation, mice were examined on a regular basis, handled, and weighed to assure adequate health and suitability. Mice were maintained on a 12/12 light/dark cycle with the light on at 6:00 a.m. The room temperature was maintained between 20 and 23° C. with a relative humidity maintained between 30% and 70%. Chow and water were provided ad libitum for the duration of the study. In each test, animals were randomly assigned across treatment groups.
The pH at the 10 mg/kg was around 5.5.
Rolipram, also dissolved in 10% DMSO was only administered 20 min prior to training on Day 2.
On Day 1, mice were habituated to a circular open field environment (d=18 in, h=15 cm) for one hour in cage groups of four. Each Arena was constructed out of acrylic that was painted black to block reflection. On day 2, mice were placed back into the same arena for a training trial and allowed to explore a set of two identical objects placed equidistance apart from both each other and the arena walls. Individual mice were trained for a total of 15 minutes and then placed back into their home cages. On Day 3, mice were placed back into the same arena in the presence of both the familiar (previously explored) and a novel object. The spatial positions of the familiar and novel object (i.e. left-right sides) were counterbalanced between subjects. The difference in time spent exploring each object during the test trial was used as an index of object recognition and memory retention. Each animals test trial was recorded and these tapes were observed and scored after test completion. The first 10 min of each session was scored and object recognition was computed using the formula: (Time spent with novel object*100)/(Total Time exploring both objects). Tissue Harvest
Data were analyzed by analysis of variance (ANOVA) followed by post-hoc comparisons with Fisher Tests when appropriate. An effect was considered significant if p<0.05. Data are represented as the mean and standard error to the mean.

[3] = * = Estimated IC50, hydrochloride

5-HT6 receptor, sequence (P50406 whole entry): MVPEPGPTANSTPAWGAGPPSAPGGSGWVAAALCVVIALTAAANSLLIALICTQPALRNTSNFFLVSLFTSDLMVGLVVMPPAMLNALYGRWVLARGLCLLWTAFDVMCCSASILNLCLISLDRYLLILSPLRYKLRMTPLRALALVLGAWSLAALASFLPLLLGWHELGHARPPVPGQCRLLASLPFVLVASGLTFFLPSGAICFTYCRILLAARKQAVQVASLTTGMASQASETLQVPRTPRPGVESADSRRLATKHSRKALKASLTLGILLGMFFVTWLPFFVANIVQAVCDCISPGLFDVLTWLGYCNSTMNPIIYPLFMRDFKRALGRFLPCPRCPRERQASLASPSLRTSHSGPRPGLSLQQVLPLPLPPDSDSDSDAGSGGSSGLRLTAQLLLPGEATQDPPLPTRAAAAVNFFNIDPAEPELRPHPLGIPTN
H1, sequence (P35367 whole entry): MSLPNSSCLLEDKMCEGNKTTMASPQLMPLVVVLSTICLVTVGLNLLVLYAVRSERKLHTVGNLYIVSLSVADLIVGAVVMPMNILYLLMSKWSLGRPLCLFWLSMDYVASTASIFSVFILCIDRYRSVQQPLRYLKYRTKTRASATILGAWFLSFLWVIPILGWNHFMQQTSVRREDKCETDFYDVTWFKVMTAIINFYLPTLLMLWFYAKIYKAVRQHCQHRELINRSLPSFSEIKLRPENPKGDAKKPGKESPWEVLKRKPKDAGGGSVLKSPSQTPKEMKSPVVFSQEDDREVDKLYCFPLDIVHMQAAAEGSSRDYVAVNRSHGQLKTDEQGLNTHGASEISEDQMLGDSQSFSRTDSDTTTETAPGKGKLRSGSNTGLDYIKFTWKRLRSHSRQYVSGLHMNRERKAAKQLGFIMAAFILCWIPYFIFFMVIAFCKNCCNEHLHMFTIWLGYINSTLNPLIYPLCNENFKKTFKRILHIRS
D3, sequence (P35462 whole entry): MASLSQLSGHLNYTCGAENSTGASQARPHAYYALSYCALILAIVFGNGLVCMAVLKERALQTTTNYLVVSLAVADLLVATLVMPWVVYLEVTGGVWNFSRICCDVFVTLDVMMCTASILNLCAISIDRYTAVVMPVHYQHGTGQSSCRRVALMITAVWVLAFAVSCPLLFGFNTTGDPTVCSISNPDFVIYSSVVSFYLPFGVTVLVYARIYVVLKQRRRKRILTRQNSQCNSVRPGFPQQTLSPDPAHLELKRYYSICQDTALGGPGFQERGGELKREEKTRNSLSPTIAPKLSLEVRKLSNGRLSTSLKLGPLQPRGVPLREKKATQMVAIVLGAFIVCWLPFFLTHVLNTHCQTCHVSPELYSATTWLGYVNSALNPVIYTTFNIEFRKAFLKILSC
D2, sequence (P14416 whole entry): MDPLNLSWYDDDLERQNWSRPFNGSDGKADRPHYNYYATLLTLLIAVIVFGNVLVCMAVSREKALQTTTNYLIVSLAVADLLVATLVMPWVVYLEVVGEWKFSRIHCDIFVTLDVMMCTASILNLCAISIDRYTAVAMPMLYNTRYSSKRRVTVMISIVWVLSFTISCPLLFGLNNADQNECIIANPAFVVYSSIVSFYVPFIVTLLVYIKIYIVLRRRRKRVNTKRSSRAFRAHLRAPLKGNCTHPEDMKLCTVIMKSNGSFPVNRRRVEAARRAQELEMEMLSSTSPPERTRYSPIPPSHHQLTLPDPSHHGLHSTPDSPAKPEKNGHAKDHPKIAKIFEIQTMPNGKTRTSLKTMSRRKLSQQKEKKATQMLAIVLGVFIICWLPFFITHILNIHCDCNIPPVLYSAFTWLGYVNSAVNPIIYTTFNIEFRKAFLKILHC
D1, sequence (P21728 whole entry): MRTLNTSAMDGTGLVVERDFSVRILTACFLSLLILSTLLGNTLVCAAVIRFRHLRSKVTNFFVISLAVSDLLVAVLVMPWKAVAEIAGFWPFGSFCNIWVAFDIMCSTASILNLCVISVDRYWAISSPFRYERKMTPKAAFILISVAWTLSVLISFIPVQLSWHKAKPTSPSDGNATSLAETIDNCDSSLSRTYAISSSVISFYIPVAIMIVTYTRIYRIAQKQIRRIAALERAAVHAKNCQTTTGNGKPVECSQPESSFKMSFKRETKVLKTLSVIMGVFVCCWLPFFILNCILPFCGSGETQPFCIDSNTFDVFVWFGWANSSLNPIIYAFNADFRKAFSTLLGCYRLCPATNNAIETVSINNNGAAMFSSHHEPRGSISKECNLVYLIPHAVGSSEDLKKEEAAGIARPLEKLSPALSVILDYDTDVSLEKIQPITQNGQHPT
5HT2A, sequence (P28223 whole entry, species assumed): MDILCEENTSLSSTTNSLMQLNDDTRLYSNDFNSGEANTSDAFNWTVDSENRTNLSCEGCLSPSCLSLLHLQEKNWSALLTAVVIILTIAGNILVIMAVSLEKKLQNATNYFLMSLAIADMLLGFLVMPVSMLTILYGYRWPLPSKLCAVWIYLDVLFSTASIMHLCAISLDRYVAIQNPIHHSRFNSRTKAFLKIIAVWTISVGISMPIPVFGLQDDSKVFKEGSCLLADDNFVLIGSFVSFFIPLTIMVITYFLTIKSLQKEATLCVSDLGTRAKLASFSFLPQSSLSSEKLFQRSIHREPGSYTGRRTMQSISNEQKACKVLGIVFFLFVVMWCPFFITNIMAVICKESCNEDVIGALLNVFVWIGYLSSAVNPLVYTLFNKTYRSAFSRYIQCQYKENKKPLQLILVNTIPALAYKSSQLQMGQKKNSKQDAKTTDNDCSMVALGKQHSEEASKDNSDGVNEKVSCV

Compound: COc1cc(Cl)cc(C(C)Nc2cc(N3CCNCC3)ccc2S(C)(=O)=O)c1OC (single isomer, unassigned; (+)) [(+) isomer, [1-(5-Chloro-2,3-dimethoxy-phenyl)-ethyl]-(2-methanesulfonyl-5-piperazin-1-yl-phenyl)-amine hydrochloride]
- Ki (5-HT6 receptor; read-out: 5-HT6 Ki): 0.018 µM

Compound: COc1cc(Cl)cc(C(C)Nc2cc(N3CCNCC3)ccc2S(C)(=O)=O)c1OC (single isomer, unassigned; (-)) [(−) isomer, [1-(5-Chloro-2,3-dimethoxy-phenyl)-ethyl]-(2-methanesulfonyl-5-piperazin-1-yl-phenyl)-amine hydrochloride]
- Ki (5-HT6 receptor; 5-HT6 Ki): 0.0045 µM

- Ki (5-HT6 receptor; read-out: 5-HT6 Ki): 0.047 µM
Compound: CC(Nc1cc(N2CCNCC2)ccc1S(C)(=O)=O)c1ccccc1 (stereo not shown) [Compound B, 2-(Methylsulfonyl)-N-(1-phenylethyl)-5-(piperazin-1-yl)benzenamine hydrochloride]

- Ki (5-HT6 receptor; read-out: 5-HT6 Ki): 0.034 µM
Compound: COc1cc(OC)cc(C(C)Nc2cc(N3CCNCC3)ccc2C(=O)C(F)(F)F)c1 (stereo not shown) [Compound C, 1-(2-(1-(3,5-Dimethoxyphenyl)ethylamino)-4-(piperazin-1-yl)phenyl)-2,2,2-trifluoroethanone hydrochloride]

- Ki (5-HT6 receptor; read-out: 5-HT6 Ki): 0.027 µM
Compound: COc1cc(OC)cc(C(C)Nc2cc(N3CCNCC3)ccc2S(C)(=O)=O)c1.Cl (stereo not shown) [Compound D, N-(1-(3,5-Dimethoxyphenyl)ethyl-2-(methylsulfonyl)-5-(piperazin-1-yl)-benzeneamine hydrochloride]

Compound: COc1cc(OC)cc(C(C)Nc2cc(N3CCNCC3)ccc2S(C)(=O)=O)c1.Cl (stereo not shown) [Compound D]
- body weight [1]: significant decrease
- food intake [1]: significant decrease
- plasma level of Insulin [1]: reduction
- plasma level of Leptin [1]: reduction
- plasma level of NEFA [1]: reduction
- plasma level of triglycerides [1]: reduction

Compound: CC(Nc1cc(N2CCNCC2)ccc1S(C)(=O)=O)c1cc(Cl)cc2c1OCCO2 (stereo not shown) [Cpd. E, N-(1-(6-Chloro-2,3-dihydrobenzo[b][1,4]dioxin-8-yl)ethyl)-2-(methylsulfonyl)-5-(piperazin-1-yl)benzenamine hydrochloride]
- Ki (D3): 0.0028 µM
- Ki (5HT2A): 0.15 µM
- IC50 (α2; [3]): 30 µM
- IC50 (H1): 20 µM
- Ki (5HT1A): 0.1 to 1 µM
- Ki (5HT2C): 0.012 µM
- Ki (D4): 0.1 to 1 µM
- Ki (D1): 0.1 to 1 µM
- Ki (5-HT6 receptor; binding profile table, read-out: 5HT6 Ki): 0.0013 µM
- IC50 (D2): 0.613 µM
- IC50 (α1; [3]): 24 µM
- IC50 (M1; * = Estimated IC50): 10 µM

Compound: COc1ccc(C2CNC(=O)C2)cc1OC1CCCC1 (stereo not shown) [Rolipram, reference compound]
- Exploration time, Diff of Means Novel vs. Familiar ([2]; 0.1 mg/kg): 29.803
- time exploring novel object versus familiar object ([2]; 0.1 mg/kg): spent more time exploring novel object than the familiar object
- effect on recognition index / object recognition compared to vehicle [2]: significant, positive effect on object recognition
- effect on recognition index / object recognition compared to vehicle ([2]; listed as rolipram): significantly increased the recognition index
- Memory index, Mean ([2]; 0.1 mg/kg, 10 min test): 71.670
- Exploration time, Mean ([2]; 0.1 mg/kg, Familiar Object): 19.172
- Exploration time, Mean ([2]; 0.1 mg/kg, Novel Object): 48.975
- Exploration time, Diff of Means 10% DMSO vs. treatment ([2]; within Familiar, 0.1 mg/kg): 4.807
- Exploration time, Diff of Means treatment vs. 10% DMSO ([2]; within Novel, 0.1 mg/kg): 17.991

- Ki (α2; read-out: α2 binding class): 0.1 to 1 µM
- Ki (5HT1A): < 0.01 µM
- Ki (5-HT6 receptor; read-out: 5HT6 binding class): 0.011 to 0.1 µM
- Ki (α1; read-out: α1 binding class): 0.1 to 1 µM
- Ki (M1; read-out: M1 binding class): < 0.01 µM
Compound: O=C1Cc2cc(CCN3CCN(c4nsc5ccccc45)CC3)c(Cl)cc2N1 [Ziprasidome, reference compound]
